Laboratory results from PubChem BioAssay (NCI).
Values joined by “and” are separate entries in the source; they are usually repeats but may differ in a detail not shown here. Equal entries are not always repeated.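 Five concentrations, 48 hours, 96-well plates. GI50 is the concentration that inhibits growth by half. TGI: total growth inhibition.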

How the values were obtained:
Experiment in all cases: NCI tumour cell line growth inhibition, 48 h
DLD-1 colon = system: DLD-1 colon
DMS 114 small cell lung = system: DMS 114 small cell lung
DMS 273 small cell lung = system: DMS 273 small cell lung
HOP-18 NSCLC = system: HOP-18 NSCLC
RXF-631 renal = system: RXF-631 renal
KM20L2 colon = system: KM20L2 colon
SNB-78 CNS = system: SNB-78 CNS
XF 498 CNS = system: XF 498 CNS
MDA-N = system: MDA-N
P388 leukemia = system: P388 leukemia

SMILES | TGI (DLD-1 colon) [µM] | TGI (DMS 114 small cell lung) | TGI (DMS 273 small cell lung) | TGI (HOP-18 NSCLC) | TGI (RXF-631 renal) [µM] | TGI (KM20L2 colon) | TGI (SNB-78 CNS) | TGI (XF 498 CNS) | TGI (MDA-N) [µM] | other results
N#CCCCCCOCCOCCOCCOCCOCCCCCC#N | > 100 | > 100 µM | > 100 µM | > 100 µM | > 100 | > 100 µM | – | – | – | –
COc1ccc(NC(=O)CC/C(CC(=O)c2ccco2)=N/NC(N)=S)cc1 | > 100 | > 100 µM | > 100 µM | > 100 µM | > 100 | > 100 µM | > 100 µM | > 100 µM | – | –
NC1CCCCC1N.O=[Se]([O-])[O-].[Pt+4] (configuration not stated) | > 83.8 | – | – | > 100 µM | – | 26.9 µM | > 100 µM | – | – | GI50 (DLD-1 colon): 1.81 µM; GI50 (SNB-78 CNS): 69.8 µM; GI50 (HOP-18 NSCLC): 27 µM; GI50 (KM20L2 colon): 0.233 µM
COC(=O)C1=COC(C)C2CN3CCc4c([nH]c5cc(OC)c(OC)cc45)C3CC12 (configuration not stated) | – | – | – | – | – | – | – | – | > 100 | –
CCCCNC(=O)C1C(=O)N(CCCC)C(=O)/C1=N\N (configuration not stated) | – | > 100 µM | > 100 µM | > 100 µM | > 100 | > 100 µM | > 100 µM | > 100 µM | – | –
CC(N)(/C=C/c1ccccc1)C(=O)O (configuration not stated) | – | – | – | – | – | – | – | – | > 100 | –
Cc1ccc(-c2cc3c4c(nc5ccccc53)C(=O)c3cccnc3-c4n2)cc1 | – | – | – | – | – | – | – | – | 10.3 | GI50 (MDA-N): 3.27 µM
Nc1nc(Cl)cc(NCC(O)CO)n1 (configuration not stated) | > 100 | > 100 µM | > 100 µM | > 100 µM | – | > 100 µM | > 100 µM | > 100 µM | – | –
COc1cc(-c2oc3c(OC)cc(OC)c(O)c3c(=O)c2OC)cc(OC)c1OC | – | – | – | – | – | – | – | – | > 100 | –
O=C1NC2C(=CC(O)C(O)C2O)c2cc3c(cc21)OCO3 (configuration not stated) | 2.11 | 3.84 µM and 2.17 µM | 1.99 µM and 2.07 µM | 4.33 µM and 13.1 µM | 3.13 | 5.54 µM and 5.32 µM | 4.94 µM and 11.2 µM | 0.93 µM and 1.81 µM and 0.644 µM | 1.22 | GI50 (DLD-1 colon): 0.325 µM and 0.217 µM; GI50 (SNB-78 CNS): 0.456 µM and 0.426 µM; GI50 (XF 498 CNS): 0.207 µM and 0.416 µM; TGI (P388 leukemia): 0.461 µM; GI50 (DMS 114 small cell lung): 0.335 µM and 0.321 µM; GI50 (DMS 273 small cell lung): 0.604 µM and 0.301 µM; GI50 (HOP-18 NSCLC): 0.545 µM and 0.392 µM; GI50 (RXF-631 renal): 0.23 µM; GI50 (KM20L2 colon): 0.34 µM and 0.261 µM
O=[N+]([O-])c1ccc(C2=Nn3c(nnc3-c3ccc(Cl)cc3)SC2)o1 | 4.32 | 12.4 µM | 31.1 µM | 33.6 µM | 27.9 | 16.1 µM | 38.6 µM | 28.7 µM | 16.4 | –
COC(=O)C1=CO[C@@H](OC2OC(CO)C(O)C(O)C2O)[C@H]2[C@@H](C)[C@@H](O)[C@@H](O)[C@@H]12 (some centres not stated) | – | – | – | – | – | – | – | – | > 100 | –
CCCNCC(=O)O[C@]1(CC)C(=O)OCc2c1cc1n(c2=O)Cc2cc3ccccc3nc2-1 | > 100 | 0.941 µM | 0.114 µM | > 100 µM | – | 19.2 µM | – | 0.652 µM | – | –
NC(N)=NC(N)=Nc1cnccn1 | – | – | – | – | – | – | – | – | > 100 | –
CC1=NN(c2ccc(S(=O)(=O)O)cc2)C(=O)/C1=C/c1ccc(Cl)cc1 | – | – | – | – | – | – | – | – | > 100 | –
CC[C@@]1(O)C(=O)OCc2c1cc1n(c2=O)Cc2cc3cccc([N+](=O)[O-])c3nc2-1 | > 100 | 38.3 µM | 1.67 µM | > 100 µM | – | 41.7 µM | > 100 µM | 34.6 µM | – | GI50 (DLD-1 colon): 24.6 µM; GI50 (SNB-78 CNS): 34.3 µM; GI50 (XF 498 CNS): 3.12 µM; GI50 (DMS 114 small cell lung): 0.684 µM; GI50 (DMS 273 small cell lung): 0.175 µM; GI50 (HOP-18 NSCLC): 1.85 µM; GI50 (KM20L2 colon): 3.24 µM
C[C@@H]1CCC([C@@H](C)[C@H]2CC[C@H]3[C@@H]4CC[C@H]5C[C@@H](O)CC[C@]5(C)[C@H]4CC[C@]23C)=NC1 | – | – | – | – | – | – | – | – | > 100 | –
CC1(C)CC[C@]2(C(=O)O)CC[C@]3(C)C(=CC[C@@H]4[C@@]5(C)C[C@H](O)[C@H](O)[C@@](C)(C(=O)O)[C@@H]5CC[C@]43C)[C@@H]2C1 | – | – | – | – | – | – | – | – | > 100 | –
C(=N\Nc1ccccc1)/c1nc2ccccc2nc1/C=N/Nc1ccccc1 | 40.9 | – | – | – | 27.6 | 26.5 µM | 42.7 µM | – | – | –
